Source: publication PMC9784924, “Antiviral Activity and Crystal Structures of HIV-1 gp120 Antagonists” (International Journal of Molecular Sciences, 2022)
Like-named read-outs stand apart in the source and are kept apart here.

Biological target: T1, HIV-1 reverse transcriptase (RT) (HIV-1 M:B_HXB2R, UniProt P04585)
T1 construct: gene gag-pol; enzyme of the Colorimetric Reverse Transcriptase Assay kit (Roche); cut from the Gag-Pol polyprotein; with p51 RT
Type: biochemical
Conditions: n = 2
From the text: Colorimetric Reverse Transcriptase Assay (Roche) on HIV-1 reverse transcriptase (RT)

SMILES | IC50 [µM] | IC50 (control) [µM]
NC[C@H](NC(=O)c1ccc(-c2ccc(C(F)(F)F)cn2)[nH]1)c1ncc(CO)s1 [NBD-14204] | 8.3 ± 1.2 | –
NC[C@H](NC(=O)c1ccc(-c2cc(F)c(Cl)c(F)c2)[nH]1)c1nc(CO)c(CO)s1 [NBD-14208] | 5 ± 0.5 | –
CC1(C)CC(NC(=O)C(=O)Nc2ccc(Cl)cc2)CC(C)(C)N1 [NBD-556, reference compound] | – | > 300
